Measurements from paper PMC5428354, “Screening of a natural compound library identifies emodin, a natural compound from Rheum palmatum Linn that inhibits DPP4” (PeerJ, 2017).
Where “and” joins values, the source holds several entries; their conditions need not be identical. Equal values may be shown once.

Key:
[1] = target: DPP8 (Homo sapiens, UniProt Q6V1X1); assay: DPP8 activity assay (BPS Bioscience kit); type: biochemical;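 as to DPP8 assay, Emission (450 nm): fluorescence read with excitation at 365 nm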
Chain of DPP8 (Q6V1X1 whole entry): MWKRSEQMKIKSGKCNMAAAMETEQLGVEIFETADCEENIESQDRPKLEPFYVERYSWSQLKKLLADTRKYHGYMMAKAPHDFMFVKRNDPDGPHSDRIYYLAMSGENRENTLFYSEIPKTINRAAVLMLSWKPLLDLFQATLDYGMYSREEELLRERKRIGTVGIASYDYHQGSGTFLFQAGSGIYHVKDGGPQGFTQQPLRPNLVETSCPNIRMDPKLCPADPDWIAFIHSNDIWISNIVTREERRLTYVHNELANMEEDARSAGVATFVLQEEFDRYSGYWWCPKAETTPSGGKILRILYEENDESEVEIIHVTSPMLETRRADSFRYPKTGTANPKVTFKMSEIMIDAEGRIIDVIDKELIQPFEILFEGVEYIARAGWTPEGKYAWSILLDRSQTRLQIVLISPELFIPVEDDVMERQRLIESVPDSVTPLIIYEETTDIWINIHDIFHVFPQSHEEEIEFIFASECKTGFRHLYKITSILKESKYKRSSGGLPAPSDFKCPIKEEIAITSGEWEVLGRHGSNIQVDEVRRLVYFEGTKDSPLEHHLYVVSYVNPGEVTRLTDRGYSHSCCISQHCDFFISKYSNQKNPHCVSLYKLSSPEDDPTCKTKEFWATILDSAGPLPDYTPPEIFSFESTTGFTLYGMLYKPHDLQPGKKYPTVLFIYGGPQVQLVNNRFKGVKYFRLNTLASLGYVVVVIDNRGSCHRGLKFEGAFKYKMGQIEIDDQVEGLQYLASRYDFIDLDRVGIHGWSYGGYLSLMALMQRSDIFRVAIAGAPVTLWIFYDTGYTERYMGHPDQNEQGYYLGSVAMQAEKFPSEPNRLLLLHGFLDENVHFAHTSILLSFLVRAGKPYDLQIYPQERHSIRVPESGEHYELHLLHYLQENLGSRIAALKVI
Description: A DPP8 assay kit was purchased from BPS Bioscience (Cat# 800208), and the assay protocol was followed to test for inhibitory activity on DPP8. Briefly, DPP substrate 1 was diluted to make a 100 µM stock solution, and DPP8 protein was diluted in DPP assay buffer to 2 ng/µl (20 ng/reaction). For the tested compounds, 10 µl of diluted DPP8 protein, 5 µl of diluted DPP substrate 1, 84 µl of DPP assay buffer and 1 µl of inhibitor were addedinto the assay system for a total volume of 100 µl. The reaction mixtures were prepared in duplicate on a 96-well plate and incubated at room temperature for 10 min. […]

[2] = target: T1, DPP4 (Homo sapiens, UniProt P27487); assay: Dialysis assay followed by DPP4 assay; type: biochemical
T1 sequence (P27487 whole entry, species assumed): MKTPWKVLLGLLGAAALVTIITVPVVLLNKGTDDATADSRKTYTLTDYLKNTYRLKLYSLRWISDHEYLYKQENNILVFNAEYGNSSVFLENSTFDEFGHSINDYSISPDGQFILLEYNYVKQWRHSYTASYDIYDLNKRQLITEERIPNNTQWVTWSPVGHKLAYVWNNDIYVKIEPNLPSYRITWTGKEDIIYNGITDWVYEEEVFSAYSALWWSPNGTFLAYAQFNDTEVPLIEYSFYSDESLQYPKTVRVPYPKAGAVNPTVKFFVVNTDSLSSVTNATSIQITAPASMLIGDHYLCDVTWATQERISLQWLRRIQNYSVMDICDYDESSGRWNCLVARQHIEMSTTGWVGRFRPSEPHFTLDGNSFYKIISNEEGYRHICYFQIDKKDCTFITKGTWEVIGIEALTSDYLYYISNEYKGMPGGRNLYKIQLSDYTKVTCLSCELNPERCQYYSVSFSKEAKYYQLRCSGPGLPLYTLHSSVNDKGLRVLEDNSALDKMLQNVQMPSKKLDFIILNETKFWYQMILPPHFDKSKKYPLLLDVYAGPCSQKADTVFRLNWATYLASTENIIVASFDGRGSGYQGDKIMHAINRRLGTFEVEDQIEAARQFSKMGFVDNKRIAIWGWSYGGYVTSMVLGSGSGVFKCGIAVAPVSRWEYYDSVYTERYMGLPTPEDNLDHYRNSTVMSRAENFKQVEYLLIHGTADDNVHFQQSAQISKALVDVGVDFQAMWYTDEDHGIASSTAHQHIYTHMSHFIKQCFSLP
Description: Dialysis assay was performed using Slide-A-Lyzer Dialysis Cassettes (Pierce, Shanghai, China). Briefly, 2 mg DPP4 protein was incubated with emodin or dimethyl sulfoxide (DMSO) in 4 ml diluted assay buffer for 10 min at 37 °C. Mixed reaction solution was loaded onto a dialysis cartridge using a syringe and incubated at 4 °C for 8 h. The samples were removed from Dialysis Cassettes by syringes for DPP4 assay.

[3] = target: T2, plasma DPP4 activity (Mus musculus, UniProt P28843); assay: Plasma DPP4 activity after oral emodin (DPP4-Glo assay kit); type: in vivo, mice; conditions: individual animals; for plasma DPP4 activity, raw signal: Balb/c mice; for DPP4 activity, raw signal: ob/ob mice
T2 construct: followed by plasma collection at different time points to measure DPP4 activity in the blood; from tissue; host or cells: mouse plasma (Balb/c and ob/ob mice)
T2 sequence (P28843 37-760 limits assumed): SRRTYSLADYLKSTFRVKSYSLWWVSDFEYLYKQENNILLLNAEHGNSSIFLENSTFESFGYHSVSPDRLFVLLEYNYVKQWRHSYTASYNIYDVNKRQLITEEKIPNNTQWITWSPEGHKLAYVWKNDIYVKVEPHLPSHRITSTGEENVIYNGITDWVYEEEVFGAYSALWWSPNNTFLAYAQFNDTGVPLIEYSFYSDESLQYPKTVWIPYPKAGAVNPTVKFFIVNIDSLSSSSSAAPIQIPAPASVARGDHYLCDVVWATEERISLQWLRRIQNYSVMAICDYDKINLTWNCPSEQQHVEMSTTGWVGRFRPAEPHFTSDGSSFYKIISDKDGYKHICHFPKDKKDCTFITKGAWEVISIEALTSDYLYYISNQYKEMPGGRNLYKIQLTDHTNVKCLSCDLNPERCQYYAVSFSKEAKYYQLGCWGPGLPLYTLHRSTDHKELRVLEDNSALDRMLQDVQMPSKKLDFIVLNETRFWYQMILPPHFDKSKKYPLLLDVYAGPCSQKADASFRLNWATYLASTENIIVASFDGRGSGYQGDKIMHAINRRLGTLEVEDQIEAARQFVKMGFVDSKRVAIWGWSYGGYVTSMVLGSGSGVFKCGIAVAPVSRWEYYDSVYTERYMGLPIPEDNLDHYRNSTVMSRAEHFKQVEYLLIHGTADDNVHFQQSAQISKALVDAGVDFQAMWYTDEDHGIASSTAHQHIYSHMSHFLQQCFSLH
Description: Balb/c mice (male, six weeks) and ob/ob (-/-) mice (male, six weeks) were purchased from the Shanghai SLAC Laboratory Animal Co. Ltd. (Shanghai, China) and maintained in an air-conditioned room at 20–25 °C under a 12 h dark/light cycle and fed certified standard chow and tap water ad libitum. Experiments were conducted in compliance with the Guide for the Care and Use of Laboratory Animals. Mice were orally administered with emodin (3, 10, or 30 mg /kg) and had their blood collected at 0.5, 1, 2, and 4 h after emodin treatment. The samples were subjected to plasma isolation immediately after collection. Plasma samples were tested for DPP4 activity with a DPP4-Glo assay kit (Promega, Beijing, China) according to the manufacturer’s protocol. The experimental protocol was approved by Animal Care and Use Committee of Xiamen University(XM2015030514).
To test the inhibitory activity of emodin on DPP4 in vivo, an animal experiment was conducted by oral administration of emodin (3, 10 and 30 mg/kg, P.O., n = 5) to Balb/c mice, followed by plasma collection at different time points to measure DPP4 activity in the blood. Plasma samples were collected at 0, 0.5, 1, 2 and 4 h after the oral dose of emodin, and plasma DPP4 activity was measured with a DPP4-Glo assay kit. […] The lowest does of emodin (3 mg/kg) decreased plasma DPP4 activity from baseline, although these levels rebounded after 1 h, whereas 10 and 30 mg/kg doses of emodin decreased plasma DPP4 activity and maintained the lower levels until 2 h post-treatment (Fig. 4). This dose-dependent manner is probably due to the pharmacokinetics of emodin, and 10 and 30 mg/kg have maximized the pharmacokinetic coverage, while 3 mg/kg emodin is only sufficient to maintain 1 h DPP4 inhibition in vivo. In the subsequent experiment, emodin (30 mg/kg, P.O.) was administered on Balb/C mice (n = 5) or ob/ob (-/-) mice (n = 5). The DPP4 activity, blood glucoselevels and GLP-1 activity were tested 0, 1, 2, 4, 8 h after administration. […] This downregulation maintained 2 h in Balb/C mice, and 4 h in ob/ob (-/-) mice, which rebounded afterwards (Fig. 5A). […] Plasma GLP-1 activity was also measured.

[4] = target: T3, DPP9 (Homo sapiens, UniProt Q86TI2); assay: DPP9 activity assay (BPS Bioscience kit); type: biochemical; conditions: 100 µM, Well #1-#3;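 as to DPP9 assay, Emission (450 nm): 20 ng DPP9 per 100 µl reaction with DPP substrate 1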
T3 construct: purchased BPS Bioscience 800209
T3 sequence (Q86TI2 whole entry): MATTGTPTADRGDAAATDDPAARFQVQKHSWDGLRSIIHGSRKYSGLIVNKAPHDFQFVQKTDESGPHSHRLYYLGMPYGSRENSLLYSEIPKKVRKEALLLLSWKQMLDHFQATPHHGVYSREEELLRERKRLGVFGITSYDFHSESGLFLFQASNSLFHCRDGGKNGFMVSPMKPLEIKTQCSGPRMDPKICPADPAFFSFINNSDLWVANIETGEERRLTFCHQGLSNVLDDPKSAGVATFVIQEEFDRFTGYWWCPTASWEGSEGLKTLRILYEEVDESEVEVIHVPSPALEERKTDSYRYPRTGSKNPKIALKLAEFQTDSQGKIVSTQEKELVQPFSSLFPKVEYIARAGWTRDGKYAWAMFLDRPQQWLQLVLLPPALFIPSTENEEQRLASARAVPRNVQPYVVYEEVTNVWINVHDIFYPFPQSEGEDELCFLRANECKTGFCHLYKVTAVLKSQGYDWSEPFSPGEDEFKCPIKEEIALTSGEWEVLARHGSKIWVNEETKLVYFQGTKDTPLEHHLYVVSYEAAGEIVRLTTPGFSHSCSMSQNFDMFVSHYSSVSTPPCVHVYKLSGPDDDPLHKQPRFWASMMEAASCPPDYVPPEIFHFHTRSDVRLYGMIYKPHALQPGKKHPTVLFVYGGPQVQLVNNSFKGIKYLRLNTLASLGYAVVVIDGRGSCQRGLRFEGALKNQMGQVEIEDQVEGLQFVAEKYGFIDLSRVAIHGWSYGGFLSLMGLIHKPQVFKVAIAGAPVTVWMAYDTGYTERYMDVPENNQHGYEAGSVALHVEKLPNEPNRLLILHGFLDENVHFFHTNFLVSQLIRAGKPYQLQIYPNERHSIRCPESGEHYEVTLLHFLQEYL

[5] = target: T1, DPP4; assay: Dialysis assay followed by DPP4 assay; type: biochemical; conditions: 0 hr of dialysis; triplicate
[6] = Blood glucose levels after oral emodin; type: in vivo, mice; set-up: unit not given here; conditions: 30 mg/kg P.O., C57BL/6 (head), individual animals
[7] = test system: GLP-1; assay: Plasma GLP-1 activity after oral emodin; type: in vivo, mice; set-up: unit not given here; conditions: 30 mg/kg P.O., C57BL/6 (head), individual animals

Cc1cc(O)c2c(c1)C(=O)c1cc(O)cc(O)c1C2=O [Emodin]
DPP8 assay, Emission (450 nm) ([1]; 100 µM, Exp #1-#5): 25326 and 25088 and 25860 and 47385 and 48311 | DPP8 activity ([1]; 100 µM, Exp #1-#5, DMSO = Ctrl): 91.7 % of Ctrl and 91.1 % of Ctrl and 90.2 % of Ctrl and 93.0 % of Ctrl and 89.9 % of Ctrl | activity against DPP8 ([1]; tested at 100 µM): without inhibiting | DPP4 activity in dialysis assay ([2]; 8 hr of dialysis, triplicate): 90 % of DMSO and 88 % of DMSO and 85 % of DMSO | DPP4 activity in dialysis assay, raw signal ([2]; 8 hr of dialysis, triplicate): 4500000 RLU and 4400000 RLU and 4250000 RLU | manner of binding to the DPP4 active site ([2]; dialysis 8 h at 4 °C): reversible manner | plasma DPP4 activity, raw signal ([3]; 3 mg/kg P.O., time 1 h): 213620 and 121520 and 101880 | plasma DPP4 activity, raw signal ([3]; 10 mg/kg P.O., time 0.5 h): 241067 and 195640 and 202693 | DPP4 activity, raw signal ([3]; 30 mg/kg P.O., 0 hours (baseline)): 3401200 and 3668100 and 3319500 and 3595400 and 3453300 | DPP4 activity, raw signal ([3]; 30 mg/kg P.O., 1 hours): 3125000 and 3575300 and 2433200 and 3311900 and 2854200 | DPP4 activity, raw signal ([3]; 30 mg/kg P.O., 2 hours): 3363400 and 2959900 and 2928700 and 2749100 | DPP4 activity, raw signal ([3]; 30 mg/kg P.O., 4 hours): 3275000 and 2989300 and 2592200 and 2835500 and 2877800 | DPP4 activity, raw signal ([3]; 30 mg/kg P.O., 8 hours): 3489100 and 3461100 and 2912800 and 3032000 and 2847400 | plasma DPP4 activity, raw signal ([3]; 30 mg/kg P.O., time 2 h): 196547 and 112320 and 158453 | plasma DPP4 activity, raw signal ([3]; 30 mg/kg P.O., time 4 h): 339907 and 323187 and 357187 | DPP9 assay, Emission (450 nm) [4]: 47887 and 46825 and 46023 | DPP9 activity ([4]; DMSO = Ctrl): 98.3 % of Ctrl and 96.1 % of Ctrl and 94.5 % of Ctrl | DPP4 activity in dialysis assay [5]: 55 % of DMSO and 58 % of DMSO and 62 % of DMSO | DPP4 activity in dialysis assay, raw signal [5]: 2750000 RLU and 2900000 RLU and 3100000 RLU | Blood glucose ([6]; 0 hours (baseline)): 15.5 and 10.4 and 10.9 (2×) and 11.2 | Blood glucose ([6]; 1 hours): 10.8 (2×) and 12.2 and 9.3 and 9.7 | Blood glucose ([6]; 2 hours): 9.3 and 9.7 and 8.4 and 8.3 and 8 | Blood glucose ([6]; 4 hours): 8.3 and 7.4 and 7.6 and 9.1 and 7.9 | Blood glucose ([6]; 8 hours): 15.9 and 11.5 and 12.6 (2×) and 15.3 | GLP-1 ([7]; 0 hours (baseline)): 2.4022 and 3.1852 and 3.2635 and 2.9242 and 1.0711 | GLP-1 ([7]; 1 hours): 2.5849 and 2.8981 and 2.4805 and 2.9503 and 0.9928 | GLP-1 ([7]; 2 hours): 2.6371 and 2.5849 and 2.9242 and 1.3843 and 2.0629 | GLP-1 ([7]; 4 hours): 2.6893 and 3.1069 and 3.0808 and 3.2113 and 0.4708 | GLP-1 ([7]; 8 hours): 1.9063 and 3.394 and 3.3157 and 2.0107 and 0.2881
